In one series the target is T1, histamine H1 receptor (Cavia porcellus, UniProt P31389).
T1 construct: performed in guinea pig cerebellum membranes as described previously; from tissue; host or cells: guinea pig cerebellum membranes
Kind of series: Histamine-H1 receptor binding assay. As to conditions: guinea pig cerebellum membranes, 0.7 nM [3H]-mepyramine, 30 min at 30° C. The protocol: (1) In vitro histamine H1 receptor binding assay, to measure the affinity of the compounds. […] Briefly, the membrane suspensions (160 μg/ml) were incubated at 30° C. with 0.7 nM [^3H]-mepyramine and different concentrations of the test compounds in a final volume of 250 μl. Binding reactions were terminated by filtration after 30 min of incubation and the bound radioactivity was determined. The non-specific binding was measured in the presence of 10 μM of promethazine. The affinity of each test compound to the receptor was determined by using at least six different concentrations run in duplicate. IC50 values were obtained by non-linear regression by use of SAS on a DEC AXP computer.

In series [1] the test system is Histamine-induced skin vascular permeability in rats. The series can be described thus: Histamine-induced skin vascular permeability in rats. It is filed as in vivo. The conditions noted are these: Rattus norvegicus, 4 h; Male Wistar rats, oral, dose of 3 mg/Kg, four hours after administration, compared with vehicle treated group. How it is done: Either one, four, eight or 24 hours later the rats were lightly anaesthetized with ether and a cutaneous reaction was induced by two intradermal injections of 50 μl of histamine (100 μg/ml) onto the back, followed by a intravenous injection of 3 ml/kg of Evan's Blue (5 mg/ml), both dissolved in saline. Sixty minutes later, the rats were killed by cervical dislocation and the back skin dissected free. The diameter (in millimetres) of the papule was measured in two directions and the area was calculated.

Structures are written as SMILES.

T1 sequence (P31389 whole entry): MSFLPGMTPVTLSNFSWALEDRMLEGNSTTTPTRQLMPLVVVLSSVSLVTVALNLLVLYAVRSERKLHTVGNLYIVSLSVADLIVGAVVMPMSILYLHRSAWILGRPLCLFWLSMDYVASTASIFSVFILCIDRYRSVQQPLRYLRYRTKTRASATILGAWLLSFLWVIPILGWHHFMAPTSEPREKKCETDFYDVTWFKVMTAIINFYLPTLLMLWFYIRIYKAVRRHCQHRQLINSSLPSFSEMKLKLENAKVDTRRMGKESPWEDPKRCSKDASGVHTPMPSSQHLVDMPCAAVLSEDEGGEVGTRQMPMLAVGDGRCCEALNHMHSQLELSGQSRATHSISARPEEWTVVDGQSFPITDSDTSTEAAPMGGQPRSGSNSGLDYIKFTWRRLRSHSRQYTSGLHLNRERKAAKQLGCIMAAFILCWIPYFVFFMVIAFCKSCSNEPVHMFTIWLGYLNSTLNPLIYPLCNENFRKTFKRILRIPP

`COc1ccc(CN2CCC(c3cn(Cc4ccoc4)c4ncccc34)CC2)cc1C(=O)O` [Example 7, 5-[4-(1-furan-3-ylmethyl-1H-pyrrolo[2,3-b]pyridin-3-yl)-piperidin-1-ylmethyl]-2-methoxybenzoic acid] gave an IC50 at histamine H1 receptor of 205 nM. Besides, the inhibition in vivo at 3 mg/kg in series [1] is greater than 50%.
For `CCOCCn1cc(C2CCN(Cc3ccc(OC)c(C(=O)O)c3)CC2)c2cccnc21` [Example 5] the same measures were 695 nM and greater than 50%.
As for `O=C(O)c1ccc(Cl)cc1OCCN1CCC(c2cn(Cc3ccoc3)c3ncccc23)CC1` [Example 44, 4-chloro-2-{2-[4-(1-furan-3-ylmethyl-1H-pyrrolo[2,3-b]pyridin-3-yl)-piperidin-1-yl]-ethoxy}-benzoic acid], the melting point is 81.6 to 83.3 °C. For the same compound, the IC50 on histamine H1 receptor was 70 nM. For the same compound, the inhibition in vivo at 3 mg/kg in series [1] is greater than 50%.
Compound `CCOCCn1cc(C2CCN(Cc3cccc(C(=O)O)c3)CC2)c2cccnc21` [Example 4, 3-{4-[1-(2-ethoxyethyl)-1H-pyrrolo[2,3-b]pyridin-3-yl]piperidin-1-ylmethyl}benzoic acid] showed an IC50 at histamine H1 receptor of 403 nM. The inhibition in vivo at 3 mg/kg in series [1] is greater than 50%.
For `CCCCn1cc(C2CCN(CCOc3ccccc3C(=O)O)CC2)c2cccnc21` [Example 25, 2-{2-[4-(1-butyl-1H-pyrrolo[2,3-b]pyridin-3-yl)piperidin-1-yl]-ethoxy}-benzoic acid] the same measures were 235 nM and greater than 50%.
The like results for `O=C(O)c1cccc(CN2CCC(c3cn(Cc4ccoc4)c4ncccc34)CC2)c1` [Example 2, 3-[4-(1-furan-3-ylmethyl-1H-pyrrolo[2,3-b]pyridin-3-yl)piperidin-1-ylmethyl]benzoic acid] were, in that order, 560 nM and greater than 50%.
